Results from patent US10604580B2, “Combination therapies with anti-CD38 antibodies” (Janssen Biotech, Inc., priority 2014, dated 2020).

Key:
XG-1 cells [1] = assay: BLI-based ADCC assay, XG-1; conditions: 10 nM ATRA 48 hours vs solvent control
Protocol: (§4) For MM cell lines, CDC and ADCC were assessed using bioluminescence imaging (BLI) based ADCC and CDC assays as described above. For primary MM cells, CDC and ADCC were assessed using Flow cytometry-based ex vivo ADCC and CDC assays in BM-MNC as described above. […] Isotype control was added at 10 μg/ml, and 10% heat-inactivated serum was used as control for CDC.

[2] = test system: MM cell lines RPMI8226, UM9, and XG1; assay: CD38 expression on MM cell lines by flow cytometry (pooled statement); format: cell-based, human
Protocol: (§1) Expression of several cell surface proteins was determined by flow cytometric analysis using FITC-, PE-, Per-CP-, or APC-conjugated monoclonal antibodies. Anti-CD38, anti-CD138, and anti-CD56 were purchased from Beckman Coulter; anti-CD3, anti-CD16, anti-CD55, anti-CD59 from BD Biosciences; and anti-CD46 from Biolegend. Flow cytometry was done using a FACS-Calibur device (Becton Dickinson); the data were analyzed using the CellQuest software.
(§2) Interaction of ATRA with nuclear retinoic acid receptors results in altered expression of target genes including induction of CD38 expression (Malavasi F. J Leukoc Biol 90:217-219, 2011; Drach et al., Cancer Res 54:1746-1752, 1994). Therefore, effect of ATRA on MM cell lines RPMI8226, UM9, and XG1 was studied. MM cells were incubated with RPMI-1640 medium alone or with ATRA ranging from 0-25 nM for 48 hours (FIG. 1A) or were incubated with 10 nM ATRA for 24, 48, 72 or 96 hours (FIG. 1B) and then harvested to determine CD38 expression by flow cytometry using a FACS-Calibur device (Becton Dickinson) and anti-CD38 antibody (Beckman Coulter). The data were analyzed using the CellQuest software.

[3] = test system: primary MM cells (BM-MNCs from 26 MM patients); assay: Ex vivo ATRA exposure of primary MM cells, surface antigen expression by flow cytometry; format: cell-based, human; conditions: 10 nM ATRA, 48 hours
Protocol: as §1
Ex vivo ATRA exposure (10 nM, 48 hours) of primary MM cells from 26 patients was also studied. In these experiments, BM-MNCs from 26 MM patients were incubated with RPMI-1640 medium alone or with 10 nM ATRA for 48 hours, incubated at 4° C. for 20 min with FITC-conjugated CD38 antibody (Beckman Coulter) and then harvested to determine CD38 expression by flow cytometry. Flow cytometric analyses were performed using a FACS-Calibur device (Becton Dickinson); the data were analyzed using the CellQuest software.

RPMI8226 cells [4] = assay: CD38 expression by flow cytometry, RPMI8226; format: cell-based, human; conditions: ATRA
Protocol: as §1, §2

[5] = test system: MM cell lines XG-1, RPMI8226 and UM9; assay: BLI-based ADCC and CDC assays, ATRA alone; format: cell-based, human; conditions: 10 nM ATRA alone
[6] = test system: RPMI8226, L363 and XG-1 cells; assay: Complement-inhibitory protein expression on MM cell lines by flow cytometry; format: cell-based, human; conditions: 0-25 nM ATRA, 48 hour
Protocol: as §1
(§3) The effect of ATRA on effector cells was evaluated. […] In the experiments, cells were cultured at 37° C. with RPMI-1640 medium with or without 10 nM ATRA 10 nM for 48 h. Cells were then incubated at 4° C. for 20 min with the appropriate conjugated antibodies panel. Flow cytometric analyses were performed using a FACS-Calibur device (Becton Dickinson); the data were analyzed using the CellQuest software.

[7] = test system: luciferase-transduced XG1 multiple myeloma cells; assay: Humanized multiple myeloma mouse model, tumor growth by BLI; format: in vivo, RAG2−/−γc−/− mice; conditions: for tumor progression (BLI): single agent plus PBMC-T, daratumumab 8 mg/kg i.p., ATRA 10 mg/kg i.p., weekly BLI for 5 weeks
Source text: Hybrid scaffolds consisting of three 2-3 mm biphasic calcium phosphate particles were coated in vitro with human mesenchymal stromal cells (MSCs; 2×10^5 cells/scaffold). After a week of in vitro culture in a osteogenic medium, humanized scaffolds were implanted subcutaneously into RAG2^−/−γc^−/− mice, as described previously (Groen et al., Blood. 19; 120:e9-e16, 2012; de Haart et al., Clin. Cancer Res. 19:5591-5601, 2013).
Eight weeks after implantation, mice received a sublethal irradiation dose (3 Gy, 200 kV, 4 mA) and luciferase-transduced XG1 cells were injected directly into the scaffold (1×10^6 cells/scaffold). […] PBMC-T were prepared by Ficoll-Hypaque density-gradient centrifugation of buffy coats, and subsequent depletion of T cells by CD3-beads using the Easy Sep™-technology ([…] Technologies). Tumor growth was monitored by weekly BLI measurements as described previously (Groen et al., Blood. 19; 120:e9-e16, 2012). All animal experiments were conducted after acquiring permission from the local ethical committee for animal experimentation and were in compliance with the Dutch Animal Experimentation Act. The statistical differences between the different treatment groups in the mice experiments were calculated using a Mann-Whitney test. P-values below 0.05 were considered significant.
Luciferase-transduced XG1 multiple myeloma cells developed into aggressive tumors in immunodeficient RAG2^−/−γc^−/− mice in a humanized bone marrow microenvironment generated by subcutaneous implantation of MSC-coated ceramic scaffolds. […] To follow the outgrowth of the tumor, BLI was performed weekly for 5 weeks.

XG-1 cells [8] = assay: CD38 expression by flow cytometry, XG-1; format: cell-based, human; conditions: ATRA
Protocol: as §1, §2

[9] = test system: primary MM cells derived from 16 patients; assay: Complement-inhibitory protein expression on primary MM cells by flow cytometry; format: cell-based, human; conditions: 10 nM ATRA, 48 h
Protocol: as §1, §3

primary MM cells [10] = assay: Flow cytometry-based ex vivo ADCC assay in BM-MNC; format: cell-based, human; conditions: for ADCC, median: 10 μg/mL daratumumab, pooled patients
Protocol: Freshly isolated BM-MNCs, containing 2-57% malignant plasma cells as determined by flow cytometry, were immediately used in ex vivo experiments. […] Sample viability at incubation was more than 98%, as assessed by using ToPro-3 (Invitrogen/Molecular Probes). […] Pooled human serum (10%) was used as a source of complement. The survival of primary CD138^+ MM cells in the BM-MNCs was determined by flow-cytometry as previously described (van der Veers et al., Haematologica 96:284-290, 2011; van der Veers et al., Blood Cancer J 1:e41, 2011). Surviving MM cells were enumerated by single platform flow-cytometric analysis of CD138^+ cells (with CD138-PE (Beckman Coulter, Miami, Fla., USA)) in the presence of Flow-Count Fluorospheres (Beckman Coulter) to determine absolute numbers of cells.

primary MM cells [11] = assay: Flow cytometry-based ex vivo CDC assay in BM-MNC; format: cell-based, human; conditions: for CDC, median: 10 μg/mL daratumumab, pooled patients
Protocol: Freshly isolated BM-MNCs, containing 2-57% malignant plasma cells as determined by flow cytometry, were immediately used in ex vivo experiments. […] Pooled human serum (10%) was used as a source of complement. The survival of primary CD138^+ MM cells in the BM-MNCs was determined by flow-cytometry as previously described (van der Veers et al., Haematologica 96:284-290, 2011; van der Veers et al., Blood Cancer J 1:e41, 2011). Surviving MM cells were enumerated by single platform flow-cytometric analysis of CD138^+ cells (with CD138-PE (Beckman Coulter, Miami, Fla., USA)) in the presence of Flow-Count Fluorospheres (Beckman Coulter) to determine absolute numbers of cells.

XG-1 cells [12] = assay: BLI-based CDC assay, XG-1; format: cell-based, human; conditions: 10 nM ATRA 48 hours vs solvent control
UM9 cells [13] = assay: CD38 expression by flow cytometry, UM9; format: cell-based, human; conditions: ATRA
Protocol: as §1, §2

RPMI8226 cells [14] = assay: BLI-based CDC assay, RPMI8226; format: cell-based, human; conditions: 10 nM ATRA 48 hours
UM9 cells [15] = assay: BLI-based ADCC assay, UM9; conditions: 10 nM ATRA 48 hours vs solvent control
Protocol: as §4

[16] = test system: PBMCs from healthy donors; human MM cell lines L363-CD38, LME-1, RPMI8226 and UM9; assay: Effect of ATRA on effector cells (PBMC-induced ADCC); format: cell-based; conditions: data not shown
Protocol: as §3

RPMI8226 cells [17] = assay: BLI-based ADCC assay, RPMI8226; conditions: 10 nM ATRA 48 hours
Protocol: as §4

[18] = after 10 nM ATRA pretreatment 48 hours

In the case of `CC1=C(/C=C/C(C)=C/C=C/C(C)=C/C(=O)O)C(C)(C)CCC1` [ATRA, all-trans retinoic acid], the “effect of ATRA pretreatment on daratumumab-mediated ADCC” value (XG-1 cells [1]) is reported as “significantly increased”, the “increase in CD38 expression” value ([2]; 10 nM ATRA (minimum sufficient), 48 hours, RPMI8226, UM9, XG1) is reported as 1.9-4.4 fold and the “time of maximum enhancement of CD38 expression” value ([2]; 10 nM ATRA for 24, 48, 72 or 96 hours) is reported as 48 h. The “CD38 expression at higher doses of ATRA” value ([2]; doses above 10 nM up to 25 nM, 48 hours) was “did not further enhance”, the “CD138 expression levels, median increase” value [3] was 2.0 fold and the “expression of CD56” value [3] was “no significant changes”. The “expression of HLA A/B/C” value [3] was “no significant changes”, the “CD38 expression increase, range” value ([3]; 26 patients) was 1.0-26.5 fold and the “CD38 expression, median increase” value ([3]; 26 patients) was 1.7 fold. For the same compound, the “upregulation of CD38 expression” value (RPMI8226 cells [4]) was 1.9 fold, the “MM cell lysis by ATRA alone” value [5] was “no MM cell lysis” and the CD46 expression levels [6] was “reduced expression levels”. The CD55 expression levels [6] was “reduced expression levels”, the CD59 expression levels [6] was “reduced expression levels” and the “effect of ATRA on anti-MM effect of daratumumab” value ([7]; daratumumab 8 mg/kg plus ATRA 10 mg/kg plus PBMC-T vs daratumumab plus PBMC-T) was “significantly enhanced”. The “tumor progression (BLI)” value [7] was “no effect”, the “enhanced CD38 expression” value (XG-1 cells [8]) was 2.9 fold and the CD46 expression levels [9] was “did not significantly affect”. For the same compound, the “expression of CD59, mean reduction” value ([9]; P=0.0047) was 37.5%, the “expression of CD55, mean reduction” value ([9]; P=0.019) was 21.3% and the “patients with significant increase in susceptibility to daratumumab-mediated ADCC” value (primary MM cells [10]; ATRA pretreatment 48 hours) was 8 out of 11. The “effect of ATRA on daratumumab-mediated ADCC” value (primary MM cells [10]; most primary MM cells tested) was “induced daratumumab-mediated ADCC”, the “patients with significant increase in susceptibility to daratumumab-mediated CDC” value (primary MM cells [11]; ATRA pretreatment 48 hours) was 13 out of 16 and the “effect of ATRA on daratumumab-mediated CDC in cells not responsive to daratumumab alone” value (primary MM cells [11]; for example patients 1, 4, 8, 12, 13, 15 and 16) was “induced daratumumab-mediated CDC”. The “effect of ATRA enhancing daratumumab-mediated CDC in some patient samples” value (primary MM cells [11]; for example patients 6, 7 and 14) was “no additional effect”, the “effect of ATRA pretreatment on daratumumab-mediated CDC” value (XG-1 cells [12]) was “significantly increased” and the “enhanced CD38 expression” value (UM9 cells [13]) was 4.4 fold. For the same compound, the “effect of ATRA pretreatment on daratumumab-mediated CDC” value (RPMI8226 cells [14]) was “no significant improvement”, the “effect of ATRA pretreatment on daratumumab-mediated ADCC” value (UM9 cells [15]) was “significantly increased” and the “effect on ability of PBMCs to induce ADCC” value [16] was “no effect or minimal effect”. The “effect of ATRA pretreatment on daratumumab-mediated ADCC” value (RPMI8226 cells [17]) was “no significant improvement”.

“daratumumab: anti-CD38 antibody, IgG1/κ, VH SEQ ID NO: 4, VL SEQ ID NO: 5, heavy chain SEQ ID NO: 12, light chain SEQ ID NO: 13” was tested, and the “tumor progression (BLI)” value [7] was “markedly slowed tumor progression”, the “ADCC, median” value (primary MM cells [10]; [18]) was 39.5% and the “ADCC, median” value (primary MM cells [10]; without ATRA pretreatment) was 25.1%. The “CDC, median” value (primary MM cells [11]; [18]) was 43.9% and the “CDC, median” value (primary MM cells [11]; without ATRA pretreatment) was 16.1%.
